In PubChem BioAssay (NCI) one finds TGI and GI50 data, which are given here for 19 compounds.

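Values below derive from 48-hour exposures of cells grown in 96-well plates, with endpoints linearly interpolated between the two concentrations bracketing the appropriate inhibition level. GI50: concentration for 50% inhibition of growth. TGI is the concentration that stops growth completely.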

Some test systems named below: OVCAR-3 ovarian; SR leukemia; SN12C renal; A549 NSCLC; SK-MEL-5 melanoma; A498 renal; OVCAR-8 ovarian; SW-620 colon; RXF 393 renal; LOX IMVI melanoma.
What all share (assay): DTP human tumour cell line panel, 48 h

A word on the TGI: it is the concentration at which net growth stops. The low end stands for greater sensitivity of the cells, the high end for lower sensitivity of the cells. For the compound `CC(=O)N/C(=C\c1ccc(/C=C(\NC(C)=O)c2nc3ccc(Cl)cc3[nH]2)cc1)c1nc2ccccc2[nH]1`, the TGI in the experiment on OVCAR-3 ovarian, in the experiment on SR leukemia, in the experiment on SN12C renal, in the experiment with A549 NSCLC, in the experiment with SK-MEL-5 melanoma and with A498 renal was above 100 µM each time. Moreover, the TGI with OVCAR-8 ovarian and in the experiment on SW-620 colon was above 100 µM each time.
In the case of `Cc1c(CCCl)c(=O)n2c([nH]c3ccccc32)c1C#N`, the TGI with OVCAR-3 ovarian is 3.67 µM; in the experiment with SR leukemia, above 10 µM; in the experiment with SN12C renal, 2.66 µM; in the experiment on A549 NSCLC it was 3.53 µM; in the experiment on SK-MEL-5 melanoma it was 2.8 µM; in the experiment on OVCAR-8 ovarian, 3.15 µM. Moreover, the TGI with RXF 393 renal came out at 3.8 µM; in the experiment on SW-620 colon, 2.27 µM; in the experiment on LOX IMVI melanoma, 2.02 µM.
By GI50 is commonly meant the concentration giving 50% growth inhibition. Consider `CC1(C)C=CC[C@]2(C)[C@H]3CC[C@@H]4[C@H]5[C@H](C(=O)/C=C/c6cccnc6)CC[C@]5(CO)CC[C@@]4(C)[C@]3(C)CC[C@@H]12`, for which the GI50 with OVCAR-3 ovarian was 1.37 µM; in the experiment with SR leukemia it was 0.631 µM; with SN12C renal, 1.07 µM; in the experiment on A549 NSCLC, 0.972 µM; in the experiment on SK-MEL-5 melanoma, 1.46 µM; in the experiment with A498 renal, 1.37 µM. The GI50 with OVCAR-8 ovarian was 0.666 µM; in the experiment with RXF 393 renal it was 1.12 µM; with SW-620 colon, 1 µM. In addition, the TGI in the experiment on OVCAR-3 ovarian stood at 2.71 µM; in the experiment on SR leukemia, 3.7 µM; in the experiment on SN12C renal, 2.45 µM; in the experiment on A549 NSCLC, 2.49 µM; in the experiment with SK-MEL-5 melanoma, 2.79 µM; in the experiment on A498 renal, 2.72 µM. For the same compound, the TGI in the experiment on OVCAR-8 ovarian was 3.22 µM; with RXF 393 renal it was 2.37 µM; in the experiment on SW-620 colon, 2.31 µM.
With `Cc1cc2nc3c(C(OC4OC(CO)C(O)C(O)C4O)C(O)CO)nn(-c4ccccc4)c3nc2cc1C` (stereo not drawn), the TGI in the experiment with OVCAR-3 ovarian, with SR leukemia, in the experiment on SN12C renal, in the experiment with A498 renal, with OVCAR-8 ovarian and in the experiment with RXF 393 renal was above 100 µM in each case. In the experiment with LOX IMVI melanoma, the TGI is above 100 µM.
In the case of `COc1ccc2c(c1)sc1nc(-c3ccccc3)c(-c3ccsc3)n12`, the GI50 is 2.15 µM in the experiment on OVCAR-3 ovarian; 2.02 µM in the experiment on SR leukemia; 12.1 µM in the experiment with SN12C renal; 5.02 µM in the experiment with A549 NSCLC; 3.34 µM in the experiment with SK-MEL-5 melanoma; 6.26 µM in the experiment with A498 renal. Moreover, the results for the GI50 with OVCAR-8 ovarian, with SW-620 colon and in the experiment on LOX IMVI melanoma were 5.95 µM, 3.84 µM and 5.25 µM, respectively. In addition, the TGI in the experiment with OVCAR-3 ovarian is 5.37 µM; with SR leukemia, above 100 µM; with SN12C renal, above 100 µM; in the experiment with A549 NSCLC, above 100 µM; in the experiment on SK-MEL-5 melanoma, 47.4 µM; in the experiment on A498 renal, above 100 µM. The TGI in the experiment on OVCAR-8 ovarian, in the experiment with SW-620 colon and in the experiment on LOX IMVI melanoma was above 100 µM in each case.
For `S=C(Nc1ccc(-c2nc3ccccc3[nH]2)cc1)NC1CCCCC1`, the TGI in the experiment with OVCAR-3 ovarian turned out to be 43.8 µM; in the experiment on SR leukemia, 52.5 µM; in the experiment with SN12C renal, 55 µM; with OVCAR-8 ovarian it was 83.7 µM; in the experiment with RXF 393 renal, 74 µM. Also, the GI50 in the experiment with SR leukemia is 10.9 µM; with SN12C renal it was 25 µM; in the experiment on A549 NSCLC, 40.3 µM; in the experiment on OVCAR-8 ovarian, 26.3 µM; with RXF 393 renal it was 15.5 µM; in the experiment with SW-620 colon it was 31.6 µM. For the same compound, the GI50 in the experiment on LOX IMVI melanoma was 15.4 µM.
Turning to `C=CCNC(=S)N1CC(C)C(=O)Nc2ccccc21` (stereo not drawn), the TGI with OVCAR-3 ovarian, with SR leukemia, in the experiment on SN12C renal, in the experiment on A549 NSCLC, in the experiment with SK-MEL-5 melanoma and with OVCAR-8 ovarian was above 100 µM each time. Also, the TGI with RXF 393 renal, in the experiment on SW-620 colon and in the experiment on LOX IMVI melanoma was above 100 µM throughout.
For `CC(=O)O[C@H]1C(N(C)C(=O)c2ccccc2)CC[C@]2(C)C3CC[C@@]4(C)C(CC(O)[C@@H]4C(C)N(C)C)[C@@H]3CCC12` (stereo partly drawn), the TGI with OVCAR-3 ovarian, in the experiment on SR leukemia, in the experiment on SN12C renal, in the experiment with A549 NSCLC, with SK-MEL-5 melanoma and in the experiment on A498 renal was above 100 µM in each case. The concentration for total growth inhibition (TGI) in the experiment on OVCAR-8 ovarian, in the experiment with SW-620 colon and in the experiment with LOX IMVI melanoma was above 100 µM in each case.
Consider `Oc1ccc(Br)cc1Sc1cc(Br)ccc1O`, for which the GI50 was 4.98 µM in the experiment on OVCAR-3 ovarian; 5.39 µM with SR leukemia; 3.89 µM in the experiment with SN12C renal; 5.09 µM in the experiment on A549 NSCLC; 3.16 µM with SK-MEL-5 melanoma; 15.5 µM in the experiment on A498 renal. Further, the GI50 in the experiment with OVCAR-8 ovarian is 5.89 µM; in the experiment with SW-620 colon it was 9.29 µM; in the experiment on LOX IMVI melanoma, 4.89 µM. The TGI with OVCAR-3 ovarian came out at 18 µM; in the experiment with SR leukemia it was 25.3 µM; in the experiment with SN12C renal, 16.8 µM; in the experiment with A549 NSCLC it was 22 µM; in the experiment with SK-MEL-5 melanoma, 11.6 µM; in the experiment on A498 renal it was 31.1 µM. In addition, the TGI is 24.7 µM in the experiment on OVCAR-8 ovarian, 25.3 µM in the experiment on SW-620 colon and 17.6 µM in the experiment on LOX IMVI melanoma.
For `CCN(CC)CCCCC1CCN(CC(=O)N2CC(C)C(=O)Nc3ccccc32)CC1` (stereo not drawn), the TGI in the experiment with OVCAR-3 ovarian, in the experiment with SR leukemia, in the experiment with SN12C renal, in the experiment on A549 NSCLC, in the experiment with SK-MEL-5 melanoma and in the experiment with A498 renal was above 100 µM each time. Besides, the TGI with SW-620 colon and in the experiment with LOX IMVI melanoma was above 100 µM in each case.
As to `NC(=O)c1c[se]c(C2OC(CO)C(O)C2O)n1` (stereo not drawn), the TGI was above 59 µM in the experiment on OVCAR-3 ovarian; above 100 µM in the experiment on SR leukemia; above 100 µM with SN12C renal; above 100 µM in the experiment with A549 NSCLC; above 100 µM with SK-MEL-5 melanoma; above 100 µM in the experiment on A498 renal. Moreover, the TGI in the experiment with OVCAR-8 ovarian, in the experiment with SW-620 colon and with LOX IMVI melanoma was above 100 µM each time.
As for `C=CCc1cc2cccc(OC)c2oc1=O`, the TGI in the experiment on OVCAR-3 ovarian, in the experiment on SR leukemia, with SN12C renal, in the experiment with A549 NSCLC, with SK-MEL-5 melanoma and in the experiment with A498 renal was above 100 µM each time. In addition, the TGI in the experiment on OVCAR-8 ovarian, with SW-620 colon and in the experiment on LOX IMVI melanoma was above 100 µM each time.
On to `CCC(=O)c1cn(C)c(=O)c2ccccc12`, for which the concentration for total growth inhibition (TGI) in the experiment on OVCAR-3 ovarian, in the experiment with SR leukemia, in the experiment on SN12C renal, in the experiment on A549 NSCLC, in the experiment with SK-MEL-5 melanoma and in the experiment with OVCAR-8 ovarian was above 100 µM each time. Also, the TGI in the experiment with RXF 393 renal, with SW-620 colon and with LOX IMVI melanoma was above 100 µM each time.
`O=[N+]([O-])c1c(/C=N/Nc2ccccc2)oc(-c2ccc3c(c2)OCO3)c1-c1ccc2c(c1)OCO2`: the TGI is 98.2 µM with OVCAR-3 ovarian; 29.8 µM in the experiment with SR leukemia; above 100 µM with SN12C renal; above 100 µM in the experiment on A549 NSCLC; above 100 µM in the experiment with OVCAR-8 ovarian; above 100 µM in the experiment with RXF 393 renal. Also, the TGI in the experiment on SW-620 colon is above 100 µM; in the experiment on LOX IMVI melanoma it was 18.1 µM.
Regarding `CCOC(=O)CCC(=O)C1c2cccc(O)c2C(=O)c2c(O)cccc21`, the TGI is 2.26 µM with OVCAR-3 ovarian; 7.29 µM in the experiment on SR leukemia; 3.22 µM with SN12C renal; 2.18 µM with A549 NSCLC; 1.4 µM with SK-MEL-5 melanoma; 3.4 µM with OVCAR-8 ovarian. In addition, the results for the TGI with RXF 393 renal, in the experiment with SW-620 colon and in the experiment with LOX IMVI melanoma were 2.08 µM, 2.24 µM and 1.89 µM, respectively.
Take `COc1ccc2c(c1)C(=O)CC(N)C2` (stereo not drawn): the TGI in the experiment on OVCAR-3 ovarian, in the experiment on SR leukemia, in the experiment on SN12C renal, in the experiment with A549 NSCLC, in the experiment on SK-MEL-5 melanoma and in the experiment on OVCAR-8 ovarian was above 100 µM in each case. In addition, the TGI in the experiment with RXF 393 renal, in the experiment on SW-620 colon and in the experiment with LOX IMVI melanoma was above 100 µM in each case.
Turning to `Cc1nc2ccc(C(F)(F)F)cc2nc1Nc1ccc(Cl)c(Cl)c1`, the TGI with OVCAR-3 ovarian is 26.9 µM; in the experiment on SR leukemia, 51.9 µM; with SN12C renal, 24.3 µM; in the experiment on A549 NSCLC, 21.6 µM; with OVCAR-8 ovarian, 25.4 µM; with RXF 393 renal, 19.1 µM. Moreover, the TGI worked out at 28.3 µM in the experiment with SW-620 colon and 13.5 µM in the experiment with LOX IMVI melanoma.
On to `O=c1cc(-c2ccccc2)[nH]c2cc(Cl)cc(Cl)c12`, for which the TGI is above 100 µM with SR leukemia; above 100 µM in the experiment on SN12C renal; above 100 µM with A549 NSCLC; above 100 µM with SK-MEL-5 melanoma; 83.5 µM with OVCAR-8 ovarian; 51.2 µM in the experiment on RXF 393 renal. The TGI in the experiment on SW-620 colon and in the experiment on LOX IMVI melanoma was above 100 µM in each case.
On to `CCCC(=O)c1c(NOC2OC(COC(C)=O)C(OC(C)=O)C(OC(C)=O)C2OC(C)=O)nc(OC)n(C)c1=O` (stereo not drawn), for which the TGI with SR leukemia, in the experiment on SN12C renal, with A549 NSCLC, in the experiment on SK-MEL-5 melanoma, in the experiment with OVCAR-8 ovarian and in the experiment on RXF 393 renal was above 100 µM each time. For the same compound, the TGI in the experiment on SW-620 colon and with LOX IMVI melanoma was above 100 µM in each case.
